# Entries after “also recorded” stand apart in the source; their conditions may differ.
# Assays:
# HMGB1 = target: T1, HMGB1 (Homo sapiens, UniProt P09429); assay: Photoaffinity labeling of HMGB1 with 4AzSA, competition by SA; type: binding; details: 0.1 mM 4AzSA, increasing concentrations of SA
# T1 construct: (i) full length: residues 2-215; 6x His (cleaved yes); made in house; host or cells: Escherichia coli BL21
# T1 sequence (P09429 2-215): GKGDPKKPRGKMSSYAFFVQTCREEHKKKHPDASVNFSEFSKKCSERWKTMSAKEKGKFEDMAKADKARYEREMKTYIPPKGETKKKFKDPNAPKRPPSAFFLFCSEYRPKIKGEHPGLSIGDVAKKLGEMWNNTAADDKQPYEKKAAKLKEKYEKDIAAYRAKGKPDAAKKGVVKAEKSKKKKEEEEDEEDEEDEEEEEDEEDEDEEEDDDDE
# Protocol: HMGB1's SA-binding activity was then assessed using photoaffinity-crosslinking. Recombinant HMGB1 was pre-incubated with or without photoreactive 4-azido SA (4AzSA) before exposure to UV irradiation (FIG. 1B).
# AtHMGB3 = target: T2, AtHMGB3 (Arabidopsis thaliana, UniProt P93047); details: co-infiltration of 1-10 μM SA, 1 μM AtHMGB3
# T2 sequence (P93047 1-141): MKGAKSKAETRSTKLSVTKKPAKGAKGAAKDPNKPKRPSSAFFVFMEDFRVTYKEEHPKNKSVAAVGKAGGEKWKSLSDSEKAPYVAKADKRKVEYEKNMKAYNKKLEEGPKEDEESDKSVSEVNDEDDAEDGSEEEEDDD
# Protocol: To detect the phosphorylation of Arabidopsis MAPKs (MPK3/4/6), 3 to 4 week-old soil grown Arabidopsis leaves were infiltrated with 1 μM AtHMGB3 or 1 μM Pep1 peptide ([…]; synthesized by GenScript USA Inc.). Two leaf disks were cut from the leaf center of two different leaves using a cork borer (diameter=0.7 cm) and immediately frozen and ground to fine powder in liquid nitrogen. […] The protein concentration of supernatant was measured using the Bradford reagent (Bio-Rad). Forty μg of proteins per sample was separated on the 8% SDS-PAGE and transferred to a PVDF membrane for immunoblotting using the anti-phospho-p44/42 MAPK antibody (Cell Signaling Technology). The large subunit of Rubisco was visualized by Coomassie Brilliant Blue (CBB) staining of the PVDF membrane in order to assess consistency of loading.
# HMGB1^SS = target: T3, HMGB1^SS (Homo sapiens, UniProt P09429); assay: HMGB1^SS-induced cytokine and COX-2 gene expression in human macrophages (qPCR); type: cell-based; details: 3 h, 100 μM SA or 1 μM ac3AESA
# T3 construct: (i) full length: residues 2-215; 6x His (cleaved yes); made in house; host or cells: Escherichia coli BL21
# T3 sequence (P09429 2-215): T1 sequence (P09429 2-215)
# Protocol: Human HeLa cells were grown in T75 flasks in DMEM medium supplemented with penicillin (10,000 IU/mL) streptomycin ([…]), and 10% fetal calf serum. Ptgs2−/− MEFs were derived from Ptgs2−/− E16 mouse embryos, obtained from the mating of Ptgs2+/− mice purchased from Taconic Biosciences. PBMCs were isolated from buffy coats of donor blood (Hospital of Magenta, Milan, Italy) by Ficoll gradient centrifugation (Lymphoprep; AXIS-SHIELD. CD14+ monocytes were isolated by positive immunoselection (CD14 Microbeads; Miltenyi Biotec) according to the manufacturer's instructions, and differentiated into macrophages using X-Vivo medium supplemented with 1% heat inactivated human serum, GM-CSF, and M-CSF.
# Macrophages were exposed to 3 μg/ml HMGB1^SS or 50 ng/ml LPS. Total RNAs were isolated using the Illustra RNAspin Mini kit (GE Healthcare), and complementary DNA (cDNA) was obtained by retro-transcription with oligo(dT) primers (Invitrogen, Carlsbad, Calif., USA) and SuperScript II Reverse Transcriptase (Invitrogen) following the manufacturers' instructions. Quantitative real-time PCR was performed using a LightCycler480 (Roche Molecular Diagnostics), in duplicates, using SYBR Green I master mix and the oligonucleotides listed in Table of primers below. The ΔCt method was used for quantification, and the β-actin gene was used for normalization.
# full-length HMGB1 = target: T4, full-length HMGB1 (Homo sapiens, UniProt P09429); assay: WaterLOGSY NMR with HMGB1; type: binding; details: 6 mM SA or 5 mM ac3AESA, 20 μM protein
# T4 construct: (i) full length: residues 2-215; hexaHis (TEV-cleavable) (N, cleaved yes); made in house
# T4 sequence (P09429 2-215): T1 sequence (P09429 2-215)
# From the text: NMR can be used to detect protein ligand interactions either by protein-detected experiments (Lepre, Moore et al. 2004), detecting changes in the frequencies of resonances of the protein sample due to ligand binding (protein-detected chemical shift perturbation (CSP) experiments), or by ligand-detected experiments (Lepre, Moore et al. 2004), in which NMR properties of the ligands due to ligand-protein interactions are detected. Protein-detected ligand binding experiments are usually done using isotope-enriched protein samples which can be studied by isotope-filtered NMR experiments, including for example ^15N-^1H-HSQC (Kay, Keifer et al. 1992). Ligand-detected experiments include the Waterlogsy experiment (Meyer and Peters 2003, Lepre, Moore et al. 2004, Furihata, Shimotakahara et al. 2008), which detects interactions in the ternary complex formed by the protein, the ligand, and one or more water molecules, and the Saturation Transfer Difference (STD) NMR experiments (Mayer and Meyer 2001, Lepre, Moore et al. 2004, Wang, Liu et al. 2004), which detects magnetization transfer from the protein to the ligand in the protein-ligand complex. The Waterlogsy experiment is a more sensitive experiment, typically employed to detect qualitatively if there is an interaction between protein and ligand. […]
compound,measurement,setting,value
"O=C(O)c1ccccc1O [SA, salicylic acid]",inhibition of crosslinking of 4AzSA to HMGB1,HMGB1,effectively inhibited crosslinking
same,effect on MPK3/6 activation by AtHMGB3,AtHMGB3,blocked
same,"suppression of cytokine (IL-6, TNFα) and COX-2 expression induced by HMGB1^SS",HMGB1^SS,partially or completely suppressed; also recorded: partially suppressed
same,WaterLOGSY binding to HMGB1,full-length HMGB1,binds
